Source: patent EP1353624B1, “PHARMACEUTICAL COMPOSITIONS OF A NON-ENTERIC COATED PROTON PUMP INHIBITOR WITH A CARBONATE SALT AND BICARBONATE SALT COMBINATION” (TAP Pharmaceutical Products, Inc., priority 2000, dated 2002)
Values joined by “and” are separate entries in the source; they are usually repeats but may differ in a detail not shown here. Equal entries are not always repeated. Where two headings read alike, the source gives them in different places.

How the values were obtained:
[1] = 50 mL SGF
Method: To determine and compare the gastric acid neutralizing capacity of sodium bicarbonate solution to carbicarb solution, the following experiment was performed.
(§1) Aqueous solutions to be tested were made up from starting materials sodium carbonate, (anhydrous, available from Mallinckrodt) and sodium bicarbonate (available from Mallinckrodt). An 8.4% sodium bicarbonate solution and an 8.4% carbicarb solution (containing equimolar amounts of sodium bicarbonate and sodium carbonate) were tested as follows.
50 mL simulated gastric fluid (SGF, prepared according to the procedure described in Example 1) was pipetted into an Erlenmeyer flask. Four drops of methyl red, then four drops of phenolphthalein were then added to the flask. The pH of solution was monitored with a pH electrode. The solution to be tested was added to a 5-mL buret. The gastric media in the flask was then titrated with the test solution to an endpoint within 0.2 pH units of pH 6.5 (as indicated by the color change and pH reading). Then, titration was resumed, to an endpoint within 0.2 pH units of pH 8.0 (as indicated by the color change and pH reading).

[2] = Text: To quantify the gas produced by the neutralization of simulated gastric fluid (SGF) by carbicarb and by sodium bicarbonate in vitro, a standard CO2 assay technique was utilized (see USP 24 -NF 19 Beta, The United States Pharmacopeia 2000, p. 306)
as §1
The specimen gas was generated by reacting either 450 mL simulated gastric fluid (SGF) with 50 mL of the carbicarb solution; or by reacting 45 ml of simulated gastric fluid with 5 ml of sodium bicarbonate solution in a 500 mL Erlenmeyer flask.
To make Simulated Gastric Fluid (SGF) 1 g sodium chloride was transferred to a 500-mL volumetric flask. After adding 1.6 g pepsin, 25 mL 2 N hydrochloric acid was added and swirled to mix. The resultant solution could then be diluted to the appropriate volume with water.
The amount of gas generated in a twenty-minute time period was measured in an Orsat Glass Vapor Absorption Apparatus, by the standard assay technique. Two tests were run for each solution. The volume of CO2 generated was calculated from the difference in the initial volume of gas produced (ml) and the final volume of gas remaining (ml).

[3] = Stability of lansoprazole in simulated gastric fluid (chromatographic assay); type: physicochemical; details: for % labeled amount of lansoprazole remaining: room temperature; for drug degraded: at 60 minutes in SGF
Method: Lansoprazole degrades in acid and is stable in base. This study was performed to determine 1) how quickly lansoprazole degrades in simulated gastric fluid (SGF); and 2) whether a high pH-buffering agent (carbicarb which is an equimolar mixture of sodium carbonate and sodium bicarbonate) could be used to retard the degradation of lansoprazole in SGF. All the experiments were conducted at room temperature (22°C ± 2°C).
The PPI test sample included lansoprazole (30 mg); mannitol (60 mg), meglumine (30 mg) and sodium hydroxide (3 mg).
Then 5.0 mL 2 N sodium hydroxide solution was added to the 0-minutes beaker with mixing. To each of the 5 remaining beakers, 10.0 mL of 8.4% carbicarb solution was added and stirred to mix. At the appropriate time interval (corresponding to the individual beaker numbers), 5.0 mL 2 N sodium hydroxide solution was added to stop the reaction. A portion of the resulting solution was diluted with pH 10 diluent. 10 µL of the resulting solution was then injected into the chromatographic system for assay.
Granular formulations of lansoprazole, including carbicarb were also made and tested. The stability of the granular formulations was tested according to the procedure of Example 3. The granular formulations of lansoprazole for this example were prepared as follows.
The coherent mass containing lansoprazole, carbicarb, lactose and sucrose solution was prepared as described above, in Example 3. This coherent mass was passed through a 20-mesh screen and the resulting granules were dried at 50°C for 12 hours. Granules containing 30-mg lansoprazole were transferred to an amber color container along with and an equal weight of flavor granules. 10 ml of water ((HPLC grade, Fisher Scientific, Pittsburgh, PA) was added to the container with gentle shaking to reconstitute the suspension. The resulting suspension of Lansoprazole was tested for stability in simulated gastric fluid as described earlier in Experiment 3.

[4] = Storage stability of granules (potency and related substances); type: physicochemical; details: granules of Examples 4 and 5; 22°C for 21 days in closed containers
Method: Additionally, the granules prepared in Examples 4 and 5 were kept at 22°C for 21 days in closed containers.

[5] = 45 mL SGF and 5 mL test solution, gas generated in twenty minutes
[6] = 450 mL SGF and 50 mL test solution, ten-fold scale-up of the 45 mL/5 mL run

O=C([O-])O.[Na+] [8.4% sodium bicarbonate solution, sodium bicarbonate]
Volume of Acid Neutralizer Solution Required ([1]; pH of simulated gastric fluid after adding neutralizer 1.2): 0 mL | Volume of Acid Neutralizer Solution Required ([1]; pH of simulated gastric fluid after adding neutralizer 2.0): 3.47 mL | Volume of Acid Neutralizer Solution Required ([1]; pH of simulated gastric fluid after adding neutralizer 3.0): 4.09 mL | Volume of Acid Neutralizer Solution Required ([1]; pH of simulated gastric fluid after adding neutralizer 4.0): 4.19 mL | Volume of Acid Neutralizer Solution Required ([1]; pH of simulated gastric fluid after adding neutralizer 5.0): 4.27 mL | Volume of Acid Neutralizer Solution Required ([1]; pH of simulated gastric fluid after adding neutralizer 6.0): 4.48 mL | Volume of Acid Neutralizer Solution Required ([1]; pH of simulated gastric fluid after adding neutralizer 7.0): 5.00 mL | Volume of Acid Neutralizer Solution Required ([1]; pH of simulated gastric fluid after adding neutralizer 8.0): 6.20 mL | volume added into the gastric media to reach the endpoint ([1]; titration endpoint (pH not given; method: pH 6.5, then pH 8.0)): 4.71 mL | Volume of CO2 ([2]; 45 mL SGF and 5 mL test solution, difference of initial and residual gas volume): 2.9 mL and 5.3 mL | Initial Gas Volume [2, 5]: 93.0 mL and 82.0 mL | Residual Gas Volume [2, 5]: 90.1 mL and 76.7 mL | Initial Gas Volume [2, 6]: 930.0 mL and 820.0 mL | Residual Gas Volume [2, 6]: 901.0 mL and 767.0 mL | Volume of CO2 [2, 6]: 29.0 mL and 53.0 mL

Cc1c(OCC(F)(F)F)ccnc1C[S+]([O-])c1nc2ccccc2[nH]1 (stereo not shown) [lansoprazole]
% labeled amount of lansoprazole remaining ([3]; Sample in carbicarb solution, time in SGF 0 minutes): 98.0% | % labeled amount of lansoprazole remaining ([3]; Sample in carbicarb solution, time in SGF 5 minutes): 96.7% | % labeled amount of lansoprazole remaining ([3]; Sample in carbicarb solution, time in SGF 15 minutes): 97.4% | % labeled amount of lansoprazole remaining ([3]; Sample in carbicarb solution, time in SGF 30 minutes): 95.8% | % labeled amount of lansoprazole remaining ([3]; Sample in carbicarb solution, time in SGF 45 minutes): 94.4% | % labeled amount of lansoprazole remaining ([3]; Sample in carbicarb solution, time in SGF 60 minutes): 96.5% | % labeled amount of lansoprazole remaining ([3]; Sample in water, time in SGF 0 minutes): 99.5% | % labeled amount of lansoprazole remaining ([3]; Sample in water, time in SGF 5 minutes): 39.9% | % labeled amount of lansoprazole remaining ([3]; Sample in water, time in SGF 15 minutes): 10.1% | % labeled amount of lansoprazole remaining ([3]; Sample in water, time in SGF 30 minutes): 4.1% | % labeled amount of lansoprazole remaining ([3]; Sample in water, time in SGF 45 minutes): 2.7% | % labeled amount of lansoprazole remaining ([3]; Sample in water, time in SGF 60 minutes): 2.0% | time stable in simulated gastric fluid ([3]; administered with carbicarb into SGF): at least 60 minutes | degradation ([3]; administered with carbicarb into SGF, 60 minutes): < 5% | drug degraded ([3]; drug constituted with carbicarb solution): 3.5% | drug degraded ([3]; drug reconstituted with water): 98% | time stable in simulated gastric fluid ([3]; formulated with carbicarb as granules (Example 4)): at least 60 minutes | time stable in simulated gastric fluid ([3]; suspension reconstituted from lansoprazole/carbicarb granules (Example 5)): at least 60 minutes | stability on storage (potency and related substances) [4]: stable
